The text below walks through data of article PMC4410478, “Larvicidal activity and possible mode of action of four flavonoids and two fatty acids identified in Millettia pinnata seed toward three mosquito species” (Parasites & Vectors, 2015).

Converted amounts (≈) assume the structure as drawn. Like-named read-outs stand apart in the source and are kept apart here.

In data set [1] the test system is different mosquito species larvae. Conditions: cited from earlier work.
In data set [2] the test system is octopamine sensitive adenylate cyclase, whole body homogenate from third instar A. aegypti larvae. The experiment in a line: Determination of cyclic AMP level (octopamine sensitive adenylate cyclase activity). It counts as biochemical, Aedes aegypti. Conditions: 100 μM test compound; octopamine 100 μM alone as comparator. How it is done:
The in vitro octopamine sensitive adenylate cyclase activity was investigated according to the modified method of Pratt and Pryor [35]. The whole bodies of 75 third instar A. aegypti larvae (106.2 mg) were homogenized in 500 μL of 2 mM Tris-maleate buffer (pH 7.4) containing 0.8 mM ethylene glycol tetraacetic acid (EGTA). Adenylate cyclase activity was measured using a cAMP Biotrak Enzyme immunoassay system according to the manufacturer’s instructions. The assay was conducted in a total volume of 100 μL containing 80 mM Tris-maleate buffer, 5 mM theophylline (to inhibit phosphodiesterase activity), 2 mM MgSO4, 0.5 mM adenosine triphosphate (ATP), 0.2 mM EGTA, 50 μL of whole body homogenate (equivalent to 4.22 μg protein), and 1 μL of the test compounds in Tris-maleate buffer containing 0.2% ethanol. After incubation for 5 min at 20°C, the reaction was initiated by the addition of ATP. Incubation was carried out at 30°C for 3 min in a shaking water bath. The reaction was terminated by boiling for 2 min, and then the assay tube was cooled and centrifuged for 10 min at 8000 g. The 50 μL aliquots of the supernatant were assayed for cAMP level.
The polystyrene microplates (1 strip of 8 wells) coated with a goat anti-mouse polyclonal antibody were used. Fifty microliters of primary antibody (mouse monoclonal antibody) solution was added to each well except the blank wells (or the nonspecific binding (NSB) wells). The wells covered with the adhesive strip were incubated for 1 h at 25°C in a shaking incubator (480 rpm), followed by four times washing steps, each with 400 μL of wash buffer. The 50 μL of the test samples for cAMP determination and cAMP standard were added to wells. Control, blank (NSB), and zero standard wells were added with 50 μL of the diluent RD5-55 buffer. The 50 μL of cAMP conjugate (horseradish peroxidase-labeled cAMP) was then added to wells. The plate covered with a new adhesive strip was incubated for 2 h at 25°C on the shaker, followed by the four times washing steps. Then, 200 μL of substrate solution (equal volume of stabilized hydrogen peroxide and stabilized chromogen) was added to each well, and the test plate was incubated for 30 min at 25°C on the benchtop in darkness. Finally, the reaction was stopped by adding 100 μL of stop solution (2 N sulfuric acid) to each well. Optical densities at 450 and 540 nm were measured using the VersaMax microplate reader. The readings at 540 nm were subtracted from the readings at 450 nm. The cAMP concentrations were expressed as nmol/μg protein. Results were expressed as mean ± SE of duplicate samples of three independent experiments.

Data set [3] relates to third instar Culex pipiens pallens larvae. Nature of the data set: direct-contact mortality bioassay. Conditions: for LC50: Culex pipiens, 24 h, read-out: LC50, mg/L (95% CL). The method, then: (§1) A direct-contact mortality bioassay was used to evaluate the toxicity of all compounds to third instar larvae from the susceptible and wild mosquito populations. Each compound in acetone (for karanjin) or methanol (for the other compounds) was suspended in distilled water with Triton X-100 (20 μL/L). Groups of 20 mosquito larvae were separately put into paper cups (270 mL) containing each test compound solution (250 mL). The OPs temephos and fenthion served as positive controls and were similarly formulated. Negative controls consisted of the acetone– or methanol–Triton X-100 solution in distilled water. […] Treated and control (acetone– or methanol–Triton X-100 solution only) larvae were held under the same conditions as those used for colony maintenance. […] All treatments were replicated three times using 20 larvae per replicate.
(§2) In separate experiments, the efficacy of the 12 experimental liquid formulations was evaluated, as stated previously. Groups of 20 mosquito larvae were separately put into paper cups containing each test solution. Temephos 200 g/L EC served as a positive control. Negative controls consisted of the ethoxylated castor oil + polyoxyethylene dodecyl mono ether solution in distilled water or water. Mortalities were recorded, as stated previously. All treatments were replicated three times using 20 larvae per replicate.
(§3) Data were corrected for control mortality using Abbott’s formula [36]. The percentages of mortality were transformed to arcsine square-root values for analysis of variance (ANOVA). […] IC50 values and cAMP levels were subjected to ANOVA. The Bonferroni multiple-comparison method was used for comparison of means. Means ± SE of untransformed data are reported. Concentration–mortality data were subjected to probit analysis.

The test system of data set [4] is third instar larvae from wild Aedes albopictus. The experiment in a line: direct-contact mortality bioassay. The note with it: for LC50: Aedes albopictus, 24 h, read-out: LC50, mg/L (95% CL). How it is done: as §1, §2, §3
In data set [5] the test system is third instar Aedes aegypti larvae. Nature of the data set: direct-contact mortality bioassay. The note with it: for LC50: Aedes aegypti, 24 h, read-out: LC50, mg/L (95% CL). The method, then: as §1, §2, §3

For `CCCCOCc1ccc(O)cc1` [4-butoxymethylphenol], in data set [1] (phenol), the LC50 is 0.05 µg/mL (≈ 0.277 µM).
As for `CCCCCCCCCCCCCCCCCCCC(=O)O` [Arachidic acid, arachidic acid], the “cAMP level compared with that induced by octopamine” value in data set [2] is given as “significantly higher than that induced by octopamine”.
Consider `CCCCCCCCCCCCCCCCCCCCCC(=O)O` [Behenic acid, behenic acid], for which the LC50 was found to be 68.8 mg/L (≈ 202 µM) in data set [3], 105 mg/L (≈ 309 µM) in data set [4] and 86.8 mg/L (≈ 255 µM) in data set [5]. Also, the “cAMP level compared with that induced by octopamine” value in data set [2] is “significantly higher than that induced by octopamine”.
Consider `CCCCCCCC/C=C/CCCCCCCC(=O)O` [Elaidic acid, elaidic acid], for which the LC50 in data set [3] came to 28.2 mg/L (≈ 99.9 µM); in data set [4], 66.3 mg/L (≈ 235 µM); in data set [5], 32.2 mg/L (≈ 114 µM). Besides, the “cAMP level compared with that induced by octopamine” value in data set [2] is “significantly higher than that induced by octopamine”.
Take `CCCCC/C=C\C/C=C\CCCCCCCC(=O)OCC` [Ethyl linoleate, ethyl linoleate]: the LC50 in data set [3], in data set [4] and in data set [5] was over 200 mg/L in each case.
For `CCCCCCCC/C=C\CCCCCCCC(=O)OCC` [Ethyl oleate, ethyl oleate], the LC50 in data set [3], in data set [4] and in data set [5] was over 200 mg/L in each case.
Consider `COP(=S)(OC)Oc1ccc(SC)c(C)c1` [Fenthion, fenthion, reference compound], for which the results for the LC50 in data set [3], in data set [4] and in data set [5] were 0.027 mg/L (≈ 0.097 µM), 0.033 mg/L (≈ 0.119 µM) and 0.022 mg/L (≈ 0.079 µM), respectively.
As for `COc1c(-c2ccccc2)oc2c3c(ccc2c1=O)OC(C)(C)C=C3` [Karanjachromene (2), karanjachromene], the LC50 was found to be 18.7 mg/L (≈ 56 µM) in data set [3], 53 mg/L (≈ 158 µM) in data set [4] and 20.6 mg/L (≈ 61.5 µM) in data set [5].
On to `COc1c(-c2ccccc2)oc2c(ccc3occc32)c1=O` [Karanjin (1), karanjin], for which the LC50 amounted to 14.6 mg/L (≈ 50 µM) in data set [3], 35.3 mg/L (≈ 121 µM) in data set [4] and 16.1 mg/L (≈ 55.2 µM) in data set [5].
Regarding `CCCCC/C=C\C/C=C\CCCCCCCC(=O)O` [Linoleic acid, linoleic acid], the LC50 in data set [3] stood at 20.1 mg/L (≈ 71.8 µM); in data set [4] it was 68.9 mg/L (≈ 246 µM); in data set [5] it was 21.3 mg/L (≈ 75.9 µM). Further, in data set [2], the “cAMP level compared with that induced by octopamine” value is on record as “significantly higher than that induced by octopamine”.
On to `CC/C=C\C/C=C\C/C=C\CCCCCCCC(=O)O` [Linolenic acid, linolenic acid], for which the LC50 in data set [3] was found to be 21.3 mg/L (≈ 76.6 µM); in data set [4], 71.3 mg/L (≈ 256 µM); in data set [5] it was 22.6 mg/L (≈ 81.1 µM). For the same molecule, in data set [2], the “cAMP level compared with that induced by octopamine” value was “significantly higher than that induced by octopamine”.
Regarding `CCCCC/C=C\C/C=C\CCCCCCCC(=O)OC` [Methyl linoleate, methyl linoleate], the LC50 in data set [3], in data set [4] and in data set [5] was over 200 mg/L each time.
In the case of `CCCCCCCC/C=C\CCCCCCCC(=O)OC` [Methyl oleate, methyl oleate], the LC50 in data set [3], in data set [4] and in data set [5] was over 200 mg/L each time.
On to `CCCCCCCC/C=C\CCCCCCCC(=O)O` [Oleic acid (3), oleic acid], for which the LC50 was 18.1 mg/L (≈ 64 µM) in data set [3], 18.8 mg/L (≈ 66.5 µM) in data set [4] and 18.4 mg/L (≈ 65.3 µM) in data set [5]. For the same molecule, the “cAMP level compared with that induced by octopamine” value in data set [2] is listed as “significantly lower than that induced by octopamine”.
Regarding `O=c1c2c(oc3c1ccc1occc13)COc1ccccc1-2` [Pongarotene (6), pongarotene], the LC50 in data set [3] was found to be 25.5 mg/L (≈ 87.9 µM); in data set [4], 65 mg/L (≈ 224 µM); in data set [5], 37.6 mg/L (≈ 130 µM).
Consider `CCCCCCCCCCCCCCCCCC(=O)O` [Stearic acid, stearic acid], for which the LC50 in data set [3], in data set [4] and in data set [5] was over 200 mg/L each time.
`COP(=S)(OC)Oc1ccc(Sc2ccc(OP(=S)(OC)OC)cc2)cc1` [Temephos, temephos, reference compound]: the LC50 is 0.013 mg/L (≈ 0.0279 µM) in data set [3], 0.01 mg/L (≈ 0.0214 µM) in data set [4] and 0.015 mg/L (≈ 0.0322 µM) in data set [5].
Regarding `CC#CC#CC(=O)c1ccccc1` [capillin], the LC50 in data set [1] (polyacetylene) was under 10 µg/mL.
As to `C/C=C/c1ccc2c(c1)[C@@H](C)[C@H](c1ccc(O)cc1)O2` [conocarpan], the LC50 in data set [1] (neolignans) is under 10 µg/mL.
Regarding `N#C[C@@H](O[C@@H]1O[C@H](CO)[C@@H](O)[C@H](O)[C@H]1O)c1ccc(O)cc1` [dhurrin], the LC50 in data set [1] (cyanogenic glycoside) was 1.12 µg/mL (≈ 3.6 µM).
Take `CCOC(=O)/C=C/c1ccccc1` [ethyl cinnamate]: in data set [1] (phenylpropanoids), the LC50 was 12.3 µg/mL (≈ 69.8 µM).
As to `CCOC(=O)C=Cc1ccc(OC)cc1` [ethyl p-methoxycinnamate], the LC50 in data set [1] (phenylpropanoids) is 20.7 µg/mL (≈ 100 µM).
As to `C/C=C/c1ccc2oc(-c3ccc(O)cc3)c(C)c2c1` [eupomatenoid-6], the LC50 in data set [1] (neolignans) was under 10 µg/mL.
As to `C=C[C@@H](O)C#CC#C[C@@H](O)/C=C\CCCCCCC` [falcarindiol], the LC50 in data set [1] (acetylenic alcohols) is 6.51 µg/mL (≈ 25 µM).
Turning to `C=C[C@H](O)C#CC#CC/C=C\CCCCCCC` [falcarinol], the LC50 in data set [1] (acetylenic alcohols) was 3.49 µg/mL (≈ 14.3 µM).
`O=C1C=CC[C@H](/C=C/c2ccccc2)O1` [goniothalmin]: in data set [1] (lactone), the LC50 was 0.87 to 25.95 µg/mL.
As for `CC(C)=CCOc1c2occc2cc2ccc(=O)oc12` [imperatorin], the LC50 in data set [1] (coumarins) is 2.88 µg/mL (≈ 10.7 µM).
Regarding `C=C1CC[C@H]2C(C)(C)CCC[C@]2(C)[C@H]1C/C=C(/C=O)CC=O` [labda-8(17)-diene-15,16-dial], the LC50 in data set [1] (terpenoid) is under 10 µg/mL.
As to `COc1ccc2ccc(=O)oc2c1CC=C(C)C` [osthole], the LC50 in data set [1] (coumarins) was 3.14 µg/mL (≈ 12.9 µM).
For `COC1=C[C@@H](C)[C@@H]2C[C@H]3OC(=O)C[C@H]4C(C)=C(OC)C(=O)[C@H]([C@@]2(C)C1=O)[C@@]34C` [quassin], the LC50 in data set [1] (terpenoid) is 6.0 µg/mL (≈ 15.4 µM).
For `C/C=C/c1cc(OC)c(OC)cc1OC` [α-asarone], the LC50 in data set [1] (phenylpropanoids) was 26.99 µg/mL (≈ 130 µM).
In the case of eupomatenoid-5, in data set [1] (neolignans), the LC50 was under 10 µg/mL.
For piperonaline, the LC50 in data set [1] (alkaloid) was 0.21 to 0.25 µg/mL.
Consider pongamol [Pongamol (5)], for which the “LC50, mg/L (95% CL)” value in data set [3] (compounds, third instar Culex pipiens pallens larvae, 24 h exposure) was 23.95 (20.68–27.34) mg/L; in data set [4] (compounds, third instar larvae from wild Aedes albopictus, 24 h exposure) it was 56.14 (49.50–64.69) mg/L; in data set [5] (compounds, third instar Aedes aegypti larvae, 24 h exposure) it was 25.76 (22.44–29.35) mg/L.
